What all share (assay): microbe, parasite or virus in culture
The subject of assay [1] is Mupirocin-resistant MRSA ATCC-BAA-1750 (USA200). It counts as cell-based, Staphylococcus aureus. To be noted: ATCC-BAA-1750; read-out: MIC. The method in brief:
(§1)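 CLSI broth microdilution in cation-adjusted Mueller Hinton 2 broth; 2-fold serial dilutions from 100 to 0.195 μM in duplicate, inoculated with ~1×10^6 CFU/mL. After overnight incubation at 35° C with shaking, OD600 was read; MIC is the lowest concentration (μM) inhibiting growth.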

Assay [2] relates to Mupirocin-susceptible MRSA ATCC-700699 (VISA). The format is cell-based, Staphylococcus aureus. To be noted: ATCC-700699; read-out: MIC. In a few lines: as §1
The test system of assay [3] is Mupirocin-susceptible MRSA ATCC-BAA-1756 (USA300). The format is cell-based, Staphylococcus aureus. To be noted: ATCC-BAA-1756; read-out: MIC. The method in brief:
as §1

Assay [4] has as its system Mupirocin-resistant MRSA ATCC-BAA-1556. The format is cell-based, Staphylococcus aureus. The method in brief:
as §1

Assay [5] has as its system Mupirocin-resistant MRSA ATCC-BAA-1708. The format is cell-based, Staphylococcus aureus. The note with it: ATCC-BAA-1708; read-out: MIC. The method in brief:
as §1

Assay [6] has as its system Mupirocin-susceptible MRSA ATCC-BAA-1681 (USA100). It counts as cell-based, Staphylococcus aureus. To be noted: ATCC-BAA-1681; read-out: MIC. In a few lines:
as §1

The test system of assay [7] is Mupirocin-susceptible MRSA ATCC-BAA-2762 (EMRSA15, ST22). It counts as cell-based, Staphylococcus aureus. The note with it: ATCC-BAA-2762; read-out: MIC. In a few lines: as §1
The test system of assay [8] is Mupirocin-susceptible MRSA ATCC-BAA-1754 (ST45). It counts as cell-based, Staphylococcus aureus. To be noted: ATCC-BAA-1754; read-out: MIC. The method in brief:
as §1

Assay [9] concerns Mupirocin-susceptible MRSA ATCC-BAA-1707 (USA400). It counts as cell-based, Staphylococcus aureus. To be noted: ATCC-BAA-1707; read-out: MIC. In a few lines: as §1
Assay [10] deals with Mupirocin-susceptible MRSA ATCC-33592 (ST239). It counts as cell-based, Staphylococcus aureus. The note with it: ATCC-33592; read-out: MIC. The method in brief:
as §1

Assay [11] relates to Staphylococcus epidermidis ATCC 12228. It counts as cell-based. To be noted: ATCC 12228. The procedure: (§2) The antibacterial potency of Compound 34 was measured using the in vitro broth microdilution assay under assay conditions described by the Clinical and Laboratory Standards Institute. […] The test substance was dissolved in 100% DMSO (unless stated below), suspended completely by sonication or vortexing, diluted by 2-fold serial titrations in the same vehicle, for a total of 10 test concentrations (final concentrations: 100, 50, 25, 12.5, 6.25, 3.125, 1.56, 0.78, 0.39, 0.2 μM). A 4 μL aliquot of each dilution was added to 196 μL of broth medium seeded with the organism suspension in wells of a 96 well plate (bacterial count: 2-8×10^5 colony forming units/mL final). The final volume was 200 μL in each well and the final DMSO concentration was 2 percent. The incubation time is either 1 or 2 days at 36° C. All strains tested underwent aerobic respiration, except for ATCC BAA-1805 and ATCC 29399. Following incubation, the test plates were visually examined and wells were scored for growth or complete growth inhibition to define the minimum inhibitory concentration. Each test substance was evaluated in duplicate and the results below are the duplicate test values.

Assay [12] deals with Staphylococcus aureus ATCC BAA-1717. It counts as cell-based. The note with it: ATCC BAA-1717. The protocol:
as §2

Assay [13] has as its system Staphylococcus aureus ATCC 19636. The format is cell-based. The note with it: ATCC 19636. The procedure:
as §2

Converted amounts (≈) assume the structure as drawn. Square brackets hold non-standard residues; d marks the D form. Peptide text beside a SMILES is read from it. dBip(4'-Cl) = N[C@H](Cc1ccc(-c2ccc(Cl)cc2)cc1)C(=O)O

In the case of `N=C(N)NCCC[C@@H](NC(=O)[C@@H](Cc1ccc(-c2ccc(Cl)cc2)cc1)NC(=O)[C@@H](CCCNC(=N)N)NC(=O)[C@H](N)Cc1ccc(-c2ccc(Cl)cc2)cc1)C(N)=O` [Compound 34] (H-[dBip(4'-Cl)][dR][dBip(4'-Cl)][dR]-NH2), the MIC in assay [1] is reported as 1.56 µM (≈ 1.32 µg/mL); in assay [2], 3.125 µM (≈ 2.64 µg/mL); in assay [3], 1.56 µM (≈ 1.32 µg/mL); in assay [4] (Mupirocin-resistant MRSA ATCC-BAA-1556, cation-adjusted MH2 broth, overnight 35° C., OD600, read-out: MIC), 3.125 µM (≈ 2.64 µg/mL); in assay [5], 1.56 µM (≈ 1.32 µg/mL); in assay [6], 3.125 µM (≈ 2.64 µg/mL). The MIC in assay [7] is 3.125 µM (≈ 2.64 µg/mL); in assay [8], 3.125 µM (≈ 2.64 µg/mL); in [9], 3.125 µM (≈ 2.64 µg/mL); in assay [10], 3.125 µM (≈ 2.64 µg/mL); in assay [11], 3.13 µM (≈ 2.64 µg/mL); in [12], 3.13 µM (≈ 2.64 µg/mL). Besides, the MIC in [13] was 3.13 µM (≈ 2.64 µg/mL). Further, the “improvement of bioactivity (lower MIC values) as compared to Compound 2” value in assay [4] (against Mupirocin-resistant MRSA strains) was “about 4 fold”.

These data come from US20200157144A1, “ANTIMICROBIAL PEPTIDOMIMETICS” (priority 2017, published 2020).
